These results are taken from ChEMBL document CHEMBL4130634, “Discovery of Reversible DNA Methyltransferase and Lysine Methyltransferase G9a Inhibitors with Antitumoral in Vivo Efficacy” (J Med Chem, 2018).

The target in data set [1] is CYP2C9 (Homo sapiens, UniProt P11712). The data set can be described thus: Inhibition of CYP2C9 in human liver microsomes at 10 uM after 10 mins in presence of NADPH by LC-MS/MS analysis relative to control. It counts as ADME.
The nature of data set [2]: Half life in mouse liver microsomes at 1 uM preincubated for 10 mins followed by NADP addition after 20 mins by LC-MS/MS analysis. It counts as ADME, microsome. (In general: Liver microsomes are vesicles of endoplasmic reticulum, rich in cytochrome P450 enzymes.)
Data set [3] relates to OCI-Ly3. The data set can be described thus: Growth inhibition of human OCI-LY3 cells after 48 hrs by MTS assay. It counts as functional. Particulars: OCI-Ly3, 48 h. In general terms: Tetrazolium assays rely on reduction of a dye to a coloured formazan, in cell work by metabolically active cells.
Data set [4] is described as follows: AUC (0 to 24 hrs) in RARG2-/-gammac-/- Balb/c mouse at 5 mg/kg, iv administered as single dose by LC-MS/MS analysis. It counts as ADME, organism-based. Details: dose 5 mg/kg, time < 24 hr, route intravenous. Particulars: in vivo.
Data set [5] has as its system MV4-11. The data set can be described thus: Growth inhibition of human MV4-11 cells after 48 hrs by MTS assay. Type of data set: functional. Particulars: MV4-11, 48 h.
The subject of data set [6] is OCI-Ly10. The data set can be described thus: Growth inhibition of human OCI-LY10 cells after 48 hrs by MTS assay. It counts as functional. The settings on record: OCI-Ly10, 48 h.
Data set [7] addresses T1, Histone-lysine N-methyltransferase EHMT2 (Homo sapiens, UniProt Q96KQ7).
T1 sequence (Q96KQ7 whole entry): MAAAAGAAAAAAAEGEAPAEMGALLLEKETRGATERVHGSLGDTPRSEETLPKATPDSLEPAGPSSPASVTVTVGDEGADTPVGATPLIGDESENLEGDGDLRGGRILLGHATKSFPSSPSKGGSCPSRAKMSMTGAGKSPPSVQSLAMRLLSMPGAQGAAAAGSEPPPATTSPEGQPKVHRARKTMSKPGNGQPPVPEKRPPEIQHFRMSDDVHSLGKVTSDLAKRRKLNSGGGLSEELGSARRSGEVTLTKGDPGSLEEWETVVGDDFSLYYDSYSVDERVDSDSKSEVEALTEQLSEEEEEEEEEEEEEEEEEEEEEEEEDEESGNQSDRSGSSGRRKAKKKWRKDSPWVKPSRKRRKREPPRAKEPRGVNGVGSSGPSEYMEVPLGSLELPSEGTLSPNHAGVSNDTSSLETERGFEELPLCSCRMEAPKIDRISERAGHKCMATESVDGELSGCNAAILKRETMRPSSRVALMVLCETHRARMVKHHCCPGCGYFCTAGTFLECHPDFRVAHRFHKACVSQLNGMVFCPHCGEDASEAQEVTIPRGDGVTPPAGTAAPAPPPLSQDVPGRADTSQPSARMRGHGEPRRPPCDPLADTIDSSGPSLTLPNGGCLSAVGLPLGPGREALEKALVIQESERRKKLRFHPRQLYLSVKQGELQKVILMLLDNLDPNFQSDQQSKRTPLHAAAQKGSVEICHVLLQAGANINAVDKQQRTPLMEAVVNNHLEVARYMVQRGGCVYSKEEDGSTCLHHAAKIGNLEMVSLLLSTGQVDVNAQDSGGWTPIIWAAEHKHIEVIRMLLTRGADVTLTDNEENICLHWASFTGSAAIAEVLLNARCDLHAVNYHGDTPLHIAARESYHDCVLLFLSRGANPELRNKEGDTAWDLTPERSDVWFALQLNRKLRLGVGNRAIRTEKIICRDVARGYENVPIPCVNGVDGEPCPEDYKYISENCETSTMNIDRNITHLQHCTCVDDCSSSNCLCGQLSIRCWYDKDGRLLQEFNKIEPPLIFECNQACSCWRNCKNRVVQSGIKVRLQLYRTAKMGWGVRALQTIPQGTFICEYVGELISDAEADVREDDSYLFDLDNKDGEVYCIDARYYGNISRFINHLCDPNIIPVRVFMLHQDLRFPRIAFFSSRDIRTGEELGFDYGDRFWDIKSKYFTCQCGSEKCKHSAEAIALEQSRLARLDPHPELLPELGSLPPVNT
The data set can be described thus: Inhibition of human G9a using biotinylated-H3K9 peptide as substrate after 1 hr in presence of SAM by TR-FRET assay.

In data set [8] the target is CYP2D6 (Homo sapiens, UniProt P10635). The data set can be described thus: Inhibition of CYP2D6 in human liver microsomes at 10 uM after 10 mins in presence of NADPH by LC-MS/MS analysis relative to control. Type of data set: ADME.
Chain of CYP2D6 (P10635 whole entry): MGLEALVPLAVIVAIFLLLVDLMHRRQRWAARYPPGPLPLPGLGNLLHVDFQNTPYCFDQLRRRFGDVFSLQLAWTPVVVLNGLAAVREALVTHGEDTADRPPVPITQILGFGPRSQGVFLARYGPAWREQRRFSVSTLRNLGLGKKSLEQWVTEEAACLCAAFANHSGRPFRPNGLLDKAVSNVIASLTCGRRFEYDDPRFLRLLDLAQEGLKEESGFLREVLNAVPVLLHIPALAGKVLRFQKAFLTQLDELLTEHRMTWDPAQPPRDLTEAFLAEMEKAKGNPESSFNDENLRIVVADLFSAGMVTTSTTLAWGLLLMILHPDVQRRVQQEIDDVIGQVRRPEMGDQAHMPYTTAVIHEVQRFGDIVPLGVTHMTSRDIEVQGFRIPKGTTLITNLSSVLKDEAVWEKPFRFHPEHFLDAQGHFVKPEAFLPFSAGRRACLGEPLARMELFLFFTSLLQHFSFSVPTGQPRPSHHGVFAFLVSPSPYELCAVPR

Chain of CYP2C9 (P11712 whole entry): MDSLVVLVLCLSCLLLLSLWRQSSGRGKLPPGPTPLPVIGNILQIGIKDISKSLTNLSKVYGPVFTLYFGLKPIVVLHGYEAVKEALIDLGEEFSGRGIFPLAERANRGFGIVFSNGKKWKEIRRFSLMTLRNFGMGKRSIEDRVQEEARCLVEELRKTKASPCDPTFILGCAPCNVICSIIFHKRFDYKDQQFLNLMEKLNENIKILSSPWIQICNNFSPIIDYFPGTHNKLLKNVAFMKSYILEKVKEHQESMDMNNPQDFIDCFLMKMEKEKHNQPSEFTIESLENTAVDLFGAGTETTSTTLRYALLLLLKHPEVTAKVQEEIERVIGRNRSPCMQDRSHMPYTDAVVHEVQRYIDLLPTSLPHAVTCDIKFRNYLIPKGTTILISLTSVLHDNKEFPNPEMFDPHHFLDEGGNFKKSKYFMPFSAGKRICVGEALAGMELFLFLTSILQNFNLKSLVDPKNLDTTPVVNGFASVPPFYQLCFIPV

On to `COc1cc2c(NC3CCN(C4CC4)CC3)cc(-c3ccc(C)o3)nc2cc1OCCCN1CCCC1`, for which the inhibition (as a rule, the drop in the measured response relative to a control, in per cent) at 10 min, 10 µM in data set [1] was 8%; in data set [8] it was 27.6%. In addition, in data set [2], the half-life (commonly how long it takes for the measured level to halve) at 1 µM is 6 min. For the same compound, the values for the GI50 in data set [3], in data set [5] and in data set [6] were 187 nM, 1590 nM and 94 nM, respectively. In addition, the area under the curve AUC(0-t) – broadly, exposure summed from dosing to a finite time, without extrapolation to infinity – at 24 h in data set [4] is 8.79 µM·h. Moreover, the IC50 (in general, the concentration at which inhibition is half-maximal) in data set [7] is 22 nM.
